Measurements from article PMC6148246, “HS-1371, a novel kinase inhibitor of RIP3-mediated necroptosis” (Experimental & Molecular Medicine, 2018).

Assays:
[1] = tested on: p-MLKL; assay: Phospho-MLKL immunofluorescence in HT-29 cells; assay type: cell-based, human; conditions: HT-29, immunofluorescence
Procedure: HT-29 cells were fixed in 4% paraformaldehyde for 10 min. To stain phospho-MLKL, cells were permeabilized with 0.25% Triton X-100 for 10 min. After incubation in a blocking buffer (10% fetal bovine serum in DPBS) for 30 min, the primary antibody to phospho-MLKL was incubated overnight at 4 °C, and FITC-conjugated secondary antibody (goat anti-rabbit IgG, 1:250, dilution, Invitrogen) was incubated for 1 h at room temperature. A mounting medium containing DAPI (VECTASHIELD, Cat No. 94010, Vector Laboratories) was used for counterstaining. Representative images were taken by confocal microscope.
HT-29 cells were pretreated with four tested inhibitors for 2 h and then treated with TSZ (6 h for immunoblotting, 24 h for cell death assay). Cell lysates were analyzed by immunoblotting, and cell viability was analyzed by MTT assay or phase-contrast microscopy. The results are presented as the means ± SEM. *P < 0.05, **P < 0.01, ***P < 0.001. b Protection of necroptosis by HS-1371 treatment is similar with dabrafenib, which abolished downstream events. HT-29 cells were pretreated with various necroptosis inhibitors and HS-1371 before TSZ treatment. Cell lysates were analyzed by immunoblotting, and cell viability was analyzed by MTT assay (left panel). Cells were stained with phospho-MLKL antibody and analyzed by confocal fluorescence microscopy (middle panel), and cell death was further analyzed by FACS analysis after PI staining (right panel). c HS-1371 protects cells from TNF-induced necroptosis in a dose-dependent manner. HT-29 cells were pretreated with indicated concentrations of HS-1371 and then treated with TSZ (6 h for immunoblotting, 24 h for cell death assay). Cell lysates were analyzed by immunoblotting, and cell viability was analyzed by MTT assay or phase-contrast microscopy. The results are presented as means ± SEM. *P < 0.05, **P < 0.01, ***P < 0.001 TEXT PRINTED IN THE PICTURE: (b) TSZ: 20.7 | (b) TSZ + Nec-1: 5.8 | (b) TSZ + DAB: 5.5 | (b) TSZ + 1371: 6.8 DOUBTS OF THE COPYIST ABOUT THIS PICTURE: Panel b, flow cytometry plots: the red gate numbers are printed without a measure or unit, so none is given / Panel b: the 'Untreated' control plot prints 7.7; left out because it is not a substance

[2] = tested on: RIP3 or MLKL-deficient cells; assay: TSZ treatment of RIP3 or MLKL knockdown HT-29 cells (MTT assay); assay type: cell-based, human; conditions: HT-29 shRIP3 or shMLKL, TSZ 24 h
Procedure: MISSION short-hairpin RNA (shRNA) plasmids targeting hRIP3 mRNA (NM_006871), hMLKL mRNA (NM_152649), and non-targeting control sequences (NM_027088) were obtained from Sigma-Aldrich. Lentiviral plasmids were transfected into 293TN cells (System Biosciences, LV900A-1) using Lipofectamine 2000 (Invitrogen, 11668019). Pseudoviral particles were collected 2 days after the transfection and infected into cells with polybrene (8 μg/mL). Infected cells were puromycin selected two days after infection, and knockdown was confirmed by immunoblotting.
HT-29 cells expressing RIP3 shRNA, MLKL shRNA, or non-silencing control were analyzed by western blotting (upper panel), and these cells were treated with TSZ (6 h for immunoblotting, 24 h for cell death assay). Cell lysates were analyzed by immunoblotting (middle panel), and cell viability was analyzed by MTT assay (bottom panel). The results are presented as means ± SEM. *P < 0.05, **P < 0.01, ***P < 0.001. b HS-1371 protected cells not only from TNF-induced necroptosis but also from TRAIL-induced necroptosis. […] Cell lysates were analyzed by immunoblotting, and cell viability was analyzed by MTT assay or phase-contrast microscopy. […] Cell lysates were analyzed by immunoblotting, and cell viability was analyzed by MTT assay (TC) or CellTiter-Glo Luminescent Cell Viability Assay Kit (TS). […]

Cc1ccc(Oc2ccnc3cc(-c4cnn(C5CCNCC5)c4)ccc23)cc1 [HS-1371, 7-(1-(Piperidin-4-yl)-1H-pyrazol-4-yl)-4-(p-tolyloxy)quinoline]
p-MLKL detection / translocation after TSZ [1]: no detection of p-MLKL
cell viability in RIP3 or MLKL-deficient cells treated with TSZ [2]: did not obviously affect cell viability
